Measurements: the supplement of paper PMC10733146

Columns and labels:
Experiment in all cases: viability relative to DMSO control (fraction); higher = less drug effect (more viable cells)
Settings in all cases: 48 h
[1] = test system: primary ALL patient cells (S048)
How it was run: (§1)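 Viability was measured as CellTiter-Glo luminescence relative to the median of 16 inner DMSO wells. Primary mononuclear tumour cells, fresh or cryopreserved, were Ficoll-isolated from blood or bone marrow or taken from processed lymph node. They were seeded at 4 × 10^4 cells per well into 384-well plates holding pre-plated compounds at five concentrations, one well each, and kept in RPMI-1640 with penicillin/streptomycin, L-glutamine and human serum at 37 °C and 5% CO2 for 48 h.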

[2] = test system: primary ALL patient cells (S088)
How it was run: as §1

[3] = test system: primary AML patient cells (S002)
How it was run: as §1

[4] = test system: primary AML patient cells (S009)
How it was run: as §1

[5] = test system: primary AML patient cells (S017)
How it was run: as §1

[6] = test system: primary AML patient cells (S019)
How it was run: as §1

[7] = test system: primary AML patient cells (S021)
How it was run: as §1

[8] = test system: primary AML patient cells (S025)
How it was run: as §1

[9] = test system: primary AML patient cells (S055)
How it was run: as §1

[10] = test system: primary AML patient cells (S060)
How it was run: as §1

[11] = test system: primary AML patient cells (S071)
How it was run: as §1

[12] = test system: primary AML patient cells (S072)
How it was run: as §1

[13] = test system: primary AML patient cells (S079)
How it was run: as §1

[14] = test system: primary AML patient cells (S089)
How it was run: as §1

[15] = test system: primary AML patient cells (S091)
How it was run: as §1

[16] = test system: primary B-PLL patient cells (S016)
How it was run: as §1

[17] = test system: primary DLBCL patient cells (S082)
How it was run: as §1

[18] = test system: primary FL patient cells (S022)
How it was run: as §1

[19] = test system: primary FL patient cells (S087)
How it was run: as §1

[20] = test system: primary MCL patient cells (S053)
How it was run: as §1

O=C(Nc1cccc(C(F)(F)F)c1)Nc1cc(S(=O)(=O)NC2CC2)ccc1-c1ccsc1 [AGI-6780]
viability ([1]; 0.024 µM): 0.7 | viability ([1]; 0.12 µM): 0.636 | viability ([1]; 0.6 µM): 0.599 | viability ([1]; 3 µM): 0.622 | viability ([1]; 15 µM): 0.61 | viability ([2]; 0.024 µM): 0.408 | viability ([2]; 0.12 µM): 0.417 | viability ([2]; 0.6 µM): 0.322 | viability ([2]; 3 µM): 0.258 | viability ([2]; 15 µM): 0.205 | viability ([3]; 0.024 µM): 0.785 | viability ([3]; 0.12 µM): 0.822 | viability ([3]; 0.6 µM): 0.816 | viability ([3]; 3 µM): 0.798 | viability ([3]; 15 µM): 0.689 | viability ([4]; 0.024 µM): 0.807 | viability ([4]; 0.12 µM): 0.796 | viability ([4]; 0.6 µM): 0.875 | viability ([4]; 3 µM): 0.834 | viability ([4]; 15 µM): 0.749 | viability ([5]; 0.024 µM): 0.881 | viability ([5]; 0.12 µM): 0.938 | viability ([5]; 0.6 µM): 0.919 | viability ([5]; 3 µM): 0.908 | viability ([5]; 15 µM): 0.982 | viability ([6]; 0.024 µM): 1.17 | viability ([6]; 0.12 µM): 1.26 | viability ([6]; 0.6 µM): 1.27 | viability ([6]; 3 µM): 1.13 | viability ([6]; 15 µM): 1.18 | viability ([7]; 0.024 µM): 0.881 | viability ([7]; 0.12 µM): 0.894 | viability ([7]; 0.6 µM): 0.878 | viability ([7]; 3 µM): 0.891 | viability ([7]; 15 µM): 0.676 | viability ([8]; 0.024 µM): 0.949 | viability ([8]; 0.12 µM): 1.06 | viability ([8]; 0.6 µM): 0.978 | viability ([8]; 3 µM): 0.905 | viability ([8]; 15 µM): 0.839 | viability ([9]; 0.024 µM): 0.912 | viability ([9]; 0.12 µM): 0.919 | viability ([9]; 0.6 µM): 0.874 | viability ([9]; 3 µM): 0.859 | viability ([9]; 15 µM): 0.85 | viability ([10]; 0.024 µM): 0.963 | viability ([10]; 0.12 µM): 1 | viability ([10]; 0.6 µM): 0.991 | viability ([10]; 3 µM): 0.886 | viability ([10]; 15 µM): 0.91 | viability ([11]; 0.024 µM): 0.803 | viability ([11]; 0.12 µM): 0.828 | viability ([11]; 0.6 µM): 0.826 | viability ([11]; 3 µM): 0.78 | viability ([11]; 15 µM): 0.607 | viability ([12]; 0.024 µM): 0.98 | viability ([12]; 0.12 µM): 0.904 | viability ([12]; 0.6 µM): 0.884 | viability ([12]; 3 µM): 0.764 | viability ([12]; 15 µM): 0.769 | viability ([13]; 0.024 µM): 0.935 | viability ([13]; 0.12 µM): 0.943 | viability ([13]; 0.6 µM): 0.925 | viability ([13]; 3 µM): 0.887 | viability ([13]; 15 µM): 0.802 | viability ([14]; 0.024 µM): 0.717 | viability ([14]; 0.12 µM): 0.925 | viability ([14]; 0.6 µM): 0.822 | viability ([14]; 3 µM): 0.84 | viability ([14]; 15 µM): 0.637 | viability ([15]; 0.024 µM): 1.02 | viability ([15]; 0.12 µM): 1.05 | viability ([15]; 0.6 µM): 0.975 | viability ([15]; 3 µM): 0.989 | viability ([15]; 15 µM): 0.924 | viability ([16]; 0.024 µM): 0.776 | viability ([16]; 0.12 µM): 0.947 | viability ([16]; 0.6 µM): 0.954 | viability ([16]; 3 µM): 0.851 | viability ([16]; 15 µM): 0.981 | viability ([17]; 0.024 µM): 0.796 | viability ([17]; 0.12 µM): 0.96 | viability ([17]; 0.6 µM): 0.91 | viability ([17]; 3 µM): 0.905 | viability ([17]; 15 µM): 0.983 | viability ([18]; 0.024 µM): 0.826 | viability ([18]; 0.12 µM): 0.782 | viability ([18]; 0.6 µM): 0.821 | viability ([18]; 3 µM): 0.835 | viability ([18]; 15 µM): 0.775 | viability ([19]; 0.024 µM): 0.891 | viability ([19]; 0.12 µM): 0.944 | viability ([19]; 0.6 µM): 0.923 | viability ([19]; 3 µM): 0.906 | viability ([19]; 15 µM): 0.798 | viability ([20]; 0.024 µM): 0.741 | viability ([20]; 0.12 µM): 0.807 | viability ([20]; 0.6 µM): 0.851 | viability ([20]; 3 µM): 0.788 | viability ([20]; 15 µM): 0.88
